# Tests used:
# GA from A. awamori [1] = target: T1, GA from A. awamori (Aspergillus awamori, UniProt P69327); assay: GA activity assay: maltose hydrolysis in the presence of cosolvents; assay type: biochemical; conditions: maltose hydrolysis by GA at 45° C.; for Corresponding cosolvent concentration at maximum percent increase in kcat: 0.05M sodium acetate buffer pH 4.5, 20 mM maltose; for kcat: at cosolvent concentration of maximum increase
# T1 construct: made in house; host or cells: Saccharomyces cerevisiae
# Method: GA was produced in Saccharomyces cerevisiae and obtained, as described by Natarajan et al, Biochem., 35:3050-3058 (1996).
# Kinetic assays were performed either at 45° C. or at 60° C., in 0.05M sodium acetate buffer (pH 4.5), using a substrate, i.e., maltose, concentration of 20 mM. The substrate concentration was sufficiently above the Km value so that the measured rate was directly proportional to kcat. The enzyme concentrations used in the reaction mixtures were 35 μg/ml and 3.5 μg/ml for the 45° C. and 60° C. experiments, respectively.
# (§1) The cosolvent solutions were prepared from a concentrated cosolvent mixture by dilution to the final concentrations ranging from 0-90% (w/v), into the appropriate reaction buffer solution. The buffer solutions were titrated for pH prior to addition of cosolvent. All of the solutions were equilibrated at 45° C. (or 60° C.) in a water bath, and the reaction was started by the addition of a 25 μl aliquot of enzyme. Reaction aliquots were removed at various times, and the reaction was stopped by the addition of 2.5M Trizma base (pH 7.0). All of the reactions were performed in duplicate. The rates were determined by measuring the concentration of the released glucose by the glucose oxidase method, using the Glucose Oxidase Kit (Sigma), as modified for microtiter plate assays, at OD450 nm (Fox et al, Anal. Biochem., 195:93-96 (1991); and Palcic et al, Carbohydr. Res., 250:87-92 (1993)), and using an EL 340 biokinetics reader (BIOTEK Instruments; Winooski, Vt.).
# Glucose standards at each of the various cosolvent concentrations were run parallel to each reaction so that any effect of the cosolvents on the glucose assay could be subtracted out.
# GA from A. awamori [2] = target: T1, GA from A. awamori; assay: Effect of cosolvent solution viscosity on kcat of GA (maltose hydrolysis); assay type: biochemical; conditions: maltose hydrolysis at 45° C.; for Effect of solution viscosity on kcat (in words): PEG200 viscosities up to 14 cp, PEG8000 up to 18 cp
# Method: Kinetic assays were performed either at 45° C. or at 60° C., in 0.05M sodium acetate buffer (pH 4.5), using a substrate, i.e., maltose, concentration of 20 mM. The substrate concentration was sufficiently above the Km value so that the measured rate was directly proportional to kcat.
# as §1
# All buffers of various cosolvent concentrations were filtered before use. Viscosity and density measurements were performed using an Ostwald Capillary Viscometer at 45° C. The densities of the various buffer solutions were obtained by replicate weighing of one milliliter volumes of buffer.
# As discussed above, if product release is the rate-limiting step in the GA mechanism, there should be a dependence of the kcat value on solution viscosity. If a conformational change associated with the product release is limiting the reaction rate, the relationship between kcat and viscosity, μ, should be μ^-δ (Demchenko et al, supra). This relationship is based on the Kramers' theory (Kramers, supra) which postulates that diffusional motion in a random field controls the rate at which the enzyme complex will pass over the activation energy barrier. […] This relationship is based on the theory that the dissociating product must have a certain minimal kinetic energy to escape some characteristic volume in the enzyme active site. Once the product has exited from the characteristic volume, the product has a very low probability of reassociating. If the former relationship is valid, plots of ln(kcat) vs ln(μ) for the various cosolvents should be linear with a slope of -δ, whereas if the latter is true plots of ln(kcat) vs (μ)^2 should be linear with a slope corresponding to -γ.
# T1 sequence (P69327 25-640): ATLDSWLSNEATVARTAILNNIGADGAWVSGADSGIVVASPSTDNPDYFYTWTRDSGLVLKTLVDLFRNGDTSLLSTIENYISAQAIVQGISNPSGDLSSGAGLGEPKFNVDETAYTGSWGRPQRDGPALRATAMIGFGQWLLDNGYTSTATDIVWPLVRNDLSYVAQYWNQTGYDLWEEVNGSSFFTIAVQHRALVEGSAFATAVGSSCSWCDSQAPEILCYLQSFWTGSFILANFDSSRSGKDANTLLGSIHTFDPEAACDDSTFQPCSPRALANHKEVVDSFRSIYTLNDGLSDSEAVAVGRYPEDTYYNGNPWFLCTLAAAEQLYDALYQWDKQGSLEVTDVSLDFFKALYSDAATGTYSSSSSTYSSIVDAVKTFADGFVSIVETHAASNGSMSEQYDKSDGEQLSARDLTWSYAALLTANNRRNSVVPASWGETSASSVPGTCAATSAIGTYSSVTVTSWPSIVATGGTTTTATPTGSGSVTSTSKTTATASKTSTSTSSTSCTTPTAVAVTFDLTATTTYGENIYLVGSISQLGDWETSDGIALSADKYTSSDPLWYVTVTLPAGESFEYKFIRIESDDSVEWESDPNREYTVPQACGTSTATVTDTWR
Structure (SMILES),Maximum percent increase in kcat over control value without cosolvent (GA from A. awamori [1]) [%],Corresponding cosolvent concentration at maximum percent increase in kcat (GA from A. awamori [1]) [%],Effect of cosolvent on kcat (in words) (GA from A. awamori [1]; FIGS. 1A-1G),kcat (GA from A. awamori [1]) [s⁻¹],Solution viscosity at which GA activity starts to decrease significantly (GA from A. awamori [2]),Effect of solution viscosity on kcat (in words) (GA from A. awamori [2]),Cosolvent concentration of peak (largest) increase in kcat (GA from A. awamori [1]),Slope of plot of ln(kcat) vs (μ)^2 (GA from A. awamori [2]; FIGS. 4A-4G)
"OCC(O)CO [Glycerol, glycerol, reference compound]",11,1.0,only a minor increase in kcat,10.4,around 3.5 cp,substantially decreased kcat,,
"OCCO [EG, ethylene glycol]",32,50,,12.4,around 3.5 cp,substantially decreased kcat,around 50 % (w/v),-0.06

# From patent publication US5888781A, “Method for increasing the hydrolytic activity of starch hyrdolases” (University of Maryland Baltimore County, priority 1997, dated 1999)
